Source: ChEMBL document CHEMBL1201862, “PubChem BioAssay data set” (2004)
The source made the active and inactive calls. For most assays here, no stated cut-off is given here; in the data, actives have a measured EC50 and inactives only a lower limit.

How the values were obtained:
[1] = molecular target: T1, Replicative DNA helicase DnaB (Mycobacterium tuberculosis, UniProt P9WMR3); test: DnaB intein splicing inhibitors, dose response, biochemical, cell-free fluorescence (AID 449749); type: functional
T1 sequence (P9WMR3 whole entry): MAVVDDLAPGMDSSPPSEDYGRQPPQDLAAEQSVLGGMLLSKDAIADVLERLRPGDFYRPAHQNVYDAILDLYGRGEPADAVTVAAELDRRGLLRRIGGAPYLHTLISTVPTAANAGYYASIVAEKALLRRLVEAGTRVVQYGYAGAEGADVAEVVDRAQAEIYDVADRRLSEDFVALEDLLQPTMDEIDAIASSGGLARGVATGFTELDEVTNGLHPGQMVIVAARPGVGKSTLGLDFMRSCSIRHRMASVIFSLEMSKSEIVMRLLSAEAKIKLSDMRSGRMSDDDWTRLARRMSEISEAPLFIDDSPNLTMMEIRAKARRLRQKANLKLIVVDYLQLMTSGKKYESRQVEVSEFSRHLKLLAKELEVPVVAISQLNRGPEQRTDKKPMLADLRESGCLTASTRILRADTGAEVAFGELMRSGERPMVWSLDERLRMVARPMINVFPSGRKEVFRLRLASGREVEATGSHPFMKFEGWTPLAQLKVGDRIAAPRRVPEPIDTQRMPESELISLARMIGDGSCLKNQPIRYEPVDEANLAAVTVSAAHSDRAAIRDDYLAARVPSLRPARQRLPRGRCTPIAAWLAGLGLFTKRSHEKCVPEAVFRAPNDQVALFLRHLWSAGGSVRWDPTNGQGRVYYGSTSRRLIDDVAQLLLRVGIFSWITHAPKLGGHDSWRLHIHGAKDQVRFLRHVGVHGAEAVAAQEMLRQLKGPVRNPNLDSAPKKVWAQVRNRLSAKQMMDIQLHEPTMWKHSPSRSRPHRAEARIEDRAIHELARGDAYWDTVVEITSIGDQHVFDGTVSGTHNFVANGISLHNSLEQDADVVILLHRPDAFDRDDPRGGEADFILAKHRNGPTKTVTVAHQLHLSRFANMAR

Protein RecA = molecular target: T2, Protein RecA (Mycobacterium tuberculosis, UniProt P9WHJ3); test: Fluorescence Cell-Free Homogeneous Dose Retest to Identify Inhibitors of RecA-Intein Splicing Activity. [Related pubchem assays (depositor defined):AID2097, AID2223, AID489010, AID492950]; type: functional
T2 sequence (P9WHJ3 whole entry): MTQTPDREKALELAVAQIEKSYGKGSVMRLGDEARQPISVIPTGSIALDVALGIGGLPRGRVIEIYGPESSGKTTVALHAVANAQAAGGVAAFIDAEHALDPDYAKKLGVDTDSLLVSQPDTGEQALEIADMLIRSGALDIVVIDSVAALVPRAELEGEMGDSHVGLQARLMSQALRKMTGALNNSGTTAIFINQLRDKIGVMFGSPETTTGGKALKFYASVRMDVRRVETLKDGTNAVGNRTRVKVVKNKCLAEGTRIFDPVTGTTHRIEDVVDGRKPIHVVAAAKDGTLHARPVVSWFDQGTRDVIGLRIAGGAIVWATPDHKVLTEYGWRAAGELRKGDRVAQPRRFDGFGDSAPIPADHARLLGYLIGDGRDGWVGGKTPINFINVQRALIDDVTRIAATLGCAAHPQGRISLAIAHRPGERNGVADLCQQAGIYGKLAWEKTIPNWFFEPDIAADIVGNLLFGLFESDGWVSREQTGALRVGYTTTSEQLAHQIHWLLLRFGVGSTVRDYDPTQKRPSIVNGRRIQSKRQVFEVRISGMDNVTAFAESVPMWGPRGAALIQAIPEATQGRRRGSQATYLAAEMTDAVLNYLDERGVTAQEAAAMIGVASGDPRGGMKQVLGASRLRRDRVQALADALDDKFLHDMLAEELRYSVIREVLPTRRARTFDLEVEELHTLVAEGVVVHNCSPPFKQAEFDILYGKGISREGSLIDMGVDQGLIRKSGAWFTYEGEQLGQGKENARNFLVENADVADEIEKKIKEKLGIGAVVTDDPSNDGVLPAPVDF

[2] = inhibitors of intracellular T. cruzi replication, confirmation, NIH3T3 host cells, beta-gal luminescence (AID 2044); type: functional, cell-based;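 further: intracellular parasites grown in NIH/3T3 mouse fibroblasts as host cells; luminescent beta-galactosidase reporter signal from transgenic T. cruzi replicating inside host cells; inhibitors lower the luminescence signal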
[3] = cytotoxicity toward NIH3T3 fibroblasts, dose response, counter-screen, cell-based, ATP luminescence, mouse fibroblasts (AID 2010); type: functional;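 further: cells exposed to compound for about 90 hours before reading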
Cytochrome P450 1A2 = molecular target: T3, Cytochrome P450 1A2 (Homo sapiens, UniProt P05177);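 further: PubChem cytochrome P450 panel assay, CYP1A2 panel member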
T3 sequence (P05177 whole entry): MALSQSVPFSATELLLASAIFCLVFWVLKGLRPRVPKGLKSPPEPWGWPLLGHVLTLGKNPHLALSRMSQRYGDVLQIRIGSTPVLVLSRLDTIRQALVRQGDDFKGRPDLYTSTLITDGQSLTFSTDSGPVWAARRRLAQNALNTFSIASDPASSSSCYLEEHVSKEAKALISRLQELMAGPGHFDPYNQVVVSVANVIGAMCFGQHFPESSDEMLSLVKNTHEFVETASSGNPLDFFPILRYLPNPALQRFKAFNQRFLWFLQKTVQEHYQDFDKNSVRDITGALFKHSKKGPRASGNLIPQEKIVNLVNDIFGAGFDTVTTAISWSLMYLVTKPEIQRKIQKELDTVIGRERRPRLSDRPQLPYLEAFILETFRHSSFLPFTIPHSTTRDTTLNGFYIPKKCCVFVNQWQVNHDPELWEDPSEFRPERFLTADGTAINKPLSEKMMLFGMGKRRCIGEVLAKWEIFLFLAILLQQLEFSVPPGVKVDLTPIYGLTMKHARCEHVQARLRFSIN

[4] = system: Streptococcus sp. 'group A'; test: growth inhibition of control SK(-) GAS strain, dose response, counter-screen for streptokinase expression inhibitor project, luminescence, kanamycin, BacTiterGlo, confirmation (AID 1900); type: functional, organism-based
Streptokinase A = molecular target: T4, Streptokinase A (Streptococcus pyogenes serotype M1, UniProt P10520); test: S. pyogenes streptokinase expression inhibitors, potency, dose response, plasminogen activation absorbance, OD405 (AID 1914); type: functional, Streptococcus pyogenes M1 GAS;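 further: secreted streptokinase activity via plasminogen activation per viability signal from cell pellet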
T4 sequence (P10520 whole entry): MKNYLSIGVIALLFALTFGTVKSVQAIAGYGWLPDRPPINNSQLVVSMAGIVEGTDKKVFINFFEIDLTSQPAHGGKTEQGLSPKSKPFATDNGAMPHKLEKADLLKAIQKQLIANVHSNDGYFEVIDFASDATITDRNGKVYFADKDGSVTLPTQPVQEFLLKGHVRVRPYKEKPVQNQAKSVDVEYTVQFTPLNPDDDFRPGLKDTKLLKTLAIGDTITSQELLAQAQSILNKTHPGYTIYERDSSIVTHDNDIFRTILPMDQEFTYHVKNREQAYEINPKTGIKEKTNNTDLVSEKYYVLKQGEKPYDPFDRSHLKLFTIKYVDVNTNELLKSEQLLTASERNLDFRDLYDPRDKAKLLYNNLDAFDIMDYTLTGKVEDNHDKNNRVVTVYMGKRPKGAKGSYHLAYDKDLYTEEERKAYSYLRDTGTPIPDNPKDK

Streptococcus = test: Group A Streptococcus viability loss, dose response, counter-screen for streptokinase expression inhibitor project, luminescence, BacTiterGlo (AID 1915); type: functional, organism-based;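 further: potency for reduction of bacterial viability or growth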

CN(N)C(S)=Nc1ccc(Cl)cc1
AC50 [1]: > 380 µM (inactive)
EC50 (Protein RecA): > 380 µM (inactive)

CSc1ccc(NC(=O)Nc2cccn(Cc3ccccc3F)c2=O)cc1
EC50 [2]: 4.33 µM (active)
EC50 [3]: > 60 µM (not active)

O=C(O)COc1ccc(OCCNC[C@@H](O)COc2ccccc2)cc1
AC50 (Cytochrome P450 1A2): 39.8 µM (inconclusive)

CCC(C)Sc1cc(C(F)(F)F)c(C(=O)Nc2ccc(Cl)cc2)cn1 (configuration not stated)
EC50 [4]: 4.03 µM (active)
EC50 (Streptokinase A): 2.38 µM (active)
EC50 (Streptococcus): 7.94 µM (active)

COc1ccc2cc(C(=O)/C=C/c3cc(OC)c(O)c(OC)c3)ccc2c1
EC50 [4]: 5.61 µM (active)
EC50 (Streptokinase A): > 150 µM (not active)
EC50 (Streptococcus): 14.7 µM (active)

COc1ccc(Br)cc1C(=O)Nc1ccc(Cc2ccncc2)cc1
EC50 [2]: 3.4 µM (active)
EC50 [3]: > 60 µM (not active)

Cc1ccc(NC(=S)NC(=O)c2c(-c3ccccc3Cl)noc2C)cc1
AC50 (Cytochrome P450 1A2): 8.91 µM (inconclusive)

Cc1cccn2c(CNCC3(c4ccccc4)CCCC3)c(C(=O)N3CCOCC3)nc12
AC50 [1]: > 380 µM (inactive)
EC50 (Protein RecA): > 380 µM (inactive)

CS(=O)(=O)N1CCC2(CC1)CN(c1ccccc1)C2
AC50 (Cytochrome P450 1A2): 20 µM (inconclusive)

COCCn1c(=O)c(-c2cc(F)cc(F)c2)nc2cnc(Nc3cccc(OC)c3)nc21
AC50 (Cytochrome P450 1A2): 2.51 µM (inconclusive)

O=C(CCc1ccccc1)Nc1nnc(-c2ccc3c(c2)CCCC3)o1
EC50 [4]: 3.21 µM (active)
EC50 (Streptokinase A): > 150 µM (not active)
EC50 (Streptococcus): 26.2 µM (active)

Nc1nc(-c2ccc(Br)cc2)c(S(=O)(=O)c2ccccc2)s1
AC50 [1]: 4.22 µM (active)
EC50 (Protein RecA): > 380 µM (inactive)

CCOc1cc(/C=N\NC(=O)OC(C)(C)C)ccc1OC(=O)c1ccco1
AC50 [1]: 12.8 µM (active)
EC50 (Protein RecA): 19.8 µM (active)

CCOC(=O)C1=C(C)NC(C)=C(C(=O)OC)[C@@H]1c1cccc([N+](=O)[O-])c1 [(S)-NITRENDIPINE]
AC50 (Cytochrome P450 1A2): 15.8 µM (inconclusive)

Cc1ccc(NC(=O)C2CCCN(C(=O)c3ccc(Cl)cc3)C2)cc1S(=O)(=O)N1CCOCC1 (configuration not stated)
EC50 [2]: 26.6 µM (active)
EC50 [3]: > 60 µM (not active)

CCn1c(=S)sc2c(O)nc(SCC(=O)Nc3cc(OC)ccc3OC)nc21
EC50 [4]: 6.33 µM (active)
EC50 (Streptokinase A): 17.8 µM (inconclusive)
EC50 (Streptococcus): > 150 µM (not active)

CC(C)CN(Cc1cc(=O)oc2cc3c(cc12)CCCC3)CC(C)C
EC50 [4]: 6.12 µM (active)
EC50 (Streptokinase A): 5.67 µM (active)
EC50 (Streptococcus): 21.2 µM (active)

CN1CCN(c2nc(-c3ccccc3)nc(-c3ccc(F)cc3)c2C#N)CC1
EC50 [2]: 1.25 µM (active)
EC50 [3]: > 60 µM (not active)

C=C1S/C(=N/c2ccccc2Cl)N(C(=O)c2sc3ccccc3c2Cl)C12CCCCC2
EC50 [4]: 20.2 µM (active)
EC50 (Streptokinase A): 19.8 µM (active)
EC50 (Streptococcus): > 150 µM (not active)

CCC[C@@H]1C[C@@]1(CCC)C(NC(=O)c1ccco1)c1ccc(Cl)cc1 (some centres not stated)
AC50 (Cytochrome P450 1A2): 25.1 µM (inconclusive)

Cc1ccccc1NC(=O)NCCCCc1ccccc1
EC50 [4]: > 150 µM (not active)
EC50 (Streptokinase A): > 150 µM (not active)
EC50 (Streptococcus): > 150 µM (not active)

CCOC(=O)c1cc(-c2ccc(OC(F)F)cc2)nc2c1c(=O)[nH]c(=O)n2C
EC50 [4]: 0.458 µM (active)
EC50 (Streptococcus): 1.97 µM (active)

CCCc1n[nH]c2c1C(c1cccc(OC)c1)C(C#N)=C(N)O2 (configuration not stated)
AC50 [1]: 19.3 µM (active)
EC50 (Protein RecA): 9.09 µM (active)

OCCNc1nc(Nc2ccc(Br)cc2)nc2ccccc12
EC50 [2]: 0.801 µM (active)
EC50 [3]: > 30 µM (not active)

CCCC(=O)OCCNc1cc(SCc2ccco2)c2nonc2c1[N+](=O)[O-]
AC50 [1]: 4.88 µM (active)
EC50 (Protein RecA): 1.98 µM (active)

O=[N+]([O-])C(/C=C(/Cl)[N+](=O)[O-])=C(N1CCCCC1)N1CCCCC1
EC50 [2]: 1.25 µM (active)
AC50 [1]: 14.5 µM (active)
EC50 (Protein RecA): 8.34 µM (active)

CCOC(=O)c1cc(-c2ccc(F)cc2)n(CCC(=O)NC2CCN(Cc3ccccc3)CC2)c1C
EC50 [2]: 0.773 µM (active)
EC50 [3]: > 60 µM (not active)

COC(=O)CSc1nc2sc3c(c2c(=O)n1C1CCCCC1)CCN(C)C3
AC50 [1]: > 120 µM (inactive)
EC50 (Protein RecA): 31.4 µM (active)

CN(C)CCNC(=O)c1cc(Sc2ccc(F)cc2)nc2ccccc12
EC50 [2]: 0.282 µM (active)
EC50 [3]: > 60 µM (not active)

CCOC(=O)Cc1n[nH]c2c1C(c1ccsc1)C(C#N)=C(N)O2 (configuration not stated)
AC50 [1]: > 380 µM (inactive)
EC50 (Protein RecA): 31.3 µM (active)

COc1ccc(C2=NN(C(=O)/C=C/c3ccccc3)C(c3ccccc3)C2)c(OC(C)=O)c1 (configuration not stated)
AC50 [1]: > 380 µM (inactive)
EC50 (Protein RecA): 53.8 µM (active)

CCN1C(=O)C(=NNc2cccc(S(=O)(=O)N3CCOCC3)c2)C(=O)N(CC)C1=S
AC50 [1]: > 380 µM (inactive)
EC50 (Protein RecA): > 380 µM (inconclusive)

O=C(/C=C\c1ccc(Cl)cc1)N[C@@]12CCC(=O)[C@@H]3Oc4c(O)ccc5c4[C@@]31CCN(CC1CC1)[C@@H]2C5
AC50 (Cytochrome P450 1A2): 39.8 µM (inconclusive)

C=C(C)c1cccc(C(C)(C)NC(=O)NC2CCN(Cc3ccccc3)CC2)c1
EC50 [2]: 0.103 µM (active)
EC50 [3]: > 60 µM (not active)

COc1ccc(C2CC(c3ccccc3)=NN2c2ccc(S(N)(=O)=O)cc2)cc1 (configuration not stated)
EC50 [2]: 2.83 µM (active)
EC50 [3]: > 60 µM (inconclusive)

c1ccc(CCNc2ccccn2)nc1
AC50 (Cytochrome P450 1A2): 5.01 µM (inconclusive)
